IC50 data for twelve compounds are collected here from patent US7504537B2, “Hydroxamic acid derivative and MMP inhibitor containing the same as active ingredient” (Dainippon Sumitomo Pharma Co., Ltd., priority 2001, dated 2009).

Assay [1] addresses T1, MMP-2 (Homo sapiens, UniProt P08253).
T1 construct: purchased Boeringer Manheim (Roche Diagnostics)
T1 sequence (P08253 110-660): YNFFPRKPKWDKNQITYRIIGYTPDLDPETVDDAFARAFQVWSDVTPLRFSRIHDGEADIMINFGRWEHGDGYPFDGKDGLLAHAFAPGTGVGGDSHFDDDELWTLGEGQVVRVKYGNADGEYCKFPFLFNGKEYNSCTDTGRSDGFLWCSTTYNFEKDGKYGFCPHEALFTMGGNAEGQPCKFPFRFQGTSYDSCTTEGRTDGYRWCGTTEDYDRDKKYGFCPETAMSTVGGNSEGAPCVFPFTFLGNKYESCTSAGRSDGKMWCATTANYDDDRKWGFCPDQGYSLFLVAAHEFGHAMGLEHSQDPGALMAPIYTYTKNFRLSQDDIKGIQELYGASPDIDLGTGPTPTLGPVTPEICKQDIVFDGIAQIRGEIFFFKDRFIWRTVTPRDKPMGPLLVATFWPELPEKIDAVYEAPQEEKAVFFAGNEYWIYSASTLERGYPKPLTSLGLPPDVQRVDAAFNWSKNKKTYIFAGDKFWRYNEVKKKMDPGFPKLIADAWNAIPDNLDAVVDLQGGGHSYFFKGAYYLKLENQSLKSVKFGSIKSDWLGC
As to the kind of experiment: Test 3 MMP-2 inhibition activity test (gelatinase activity assay kit). The conditions noted are these: activated human MMP-2, biotin labeled gelatin. In kind it is biochemical. The method, then:
TTC buffer solution was attached to a MMP-2 enzyme assay kit, and the solution was made of 50 mM tris, 1 mM calcium chloride solution and 0.05% Triton X-100 solution, and was adjusted to pH 7.5.
Test 3 MMP-2 Inhibition Activity Test
MMP-2 enzyme assay kit (Gelatinase Activity Assay, Roche.Diagonistics) was used.
A mixture of 1.2U human MMP-2 (20 μl, Boeringer Manheim 30U freezed dry product), TTC buffer (980 μl) and 2.5 mM 4-aminophenyl mercuric acetate solution (144 μl) was incubated at 37° C. for 30 minutes and then it was preserved under ice cooling until use.
A mixture of DMSO solution (2 μl) containing a definite concentration of the compound, biotin labeled gelatin (188 μl) and activated MMP-2 solution (10 μl) was put on a 96 well-assay plate (protein nonabsorbance type), well agitated and incubated at 37° C. for 1 hour. This solution was transferred to a Streptavidin-coating plate and agitated at 15° C, to 30° C. for 30 minutes. And then the solution was washed with TTC buffer solution (200 μl) three times. Thereto was added Streptavidin-POD (200 μl) and the mixture was agitated at 15° C. to 25° C. for 60 minutes, followed by washing with TTC buffer (200 μl) three times. Then, ABTS solution (200 μl) was added thereto and after standing at room temperature for 40 minutes, furuorescence intensity was measure at 405 nm and IC50 was calculated.
In case of the above test, a control and a blank were prepared when the well was prepared as mentioned below. DMSO (2 μl) was used as a control instead of a sample solution. In the case of a blank, DMSO (2 μl) instead of the sample solution and the solution (10 μl) prepared in the same manner as preparation of activated MMP-2 solution but without adding 1.2U human MMP-2, instead of activated MMP-2 solution (10 μl), were used.

Assay [2] deals with T2, MMP-3 (Homo sapiens, UniProt P08254).
T2 construct: C-terminal truncated cDNA in which the cDNA encodes human prostromelysin; made in house; host or cells: E. coli
As to the kind of experiment: Test 1 Test on MMP-3 inhibiting activity (fluorogenic peptide substrate). Type of assay: biochemical. To be noted: activated MMP-3, 37° C.; read-out: MMP-3 inhibition activity value. The procedure: Test 1 Test on MMP-3 Inhibiting Activity
C-terminal truncated cDNA in which the cDNA encodes human prostromelysin, was subcloned (proMMP-3, cDNA sequence in Nature, 348, 699-704 (1990)), was expressed in E. coli and then, the expressed protein was purified in accordance with the method described in Biochemistry 30, 6476-6483 (1991). proMMP-3 activation was carried out by treating with 1 mM 4-aminophenyl mercuric acetate for 60 minutes at 37° C.
Enzyme activity test was conducted by the method of C. G. Knight (FEBS Lett., 296(3), 263-266 (1992)).
A mixture of activated MMP-3 (20 nM, 10 μl), buffer solution (70 μl, pH 7.5 solution containing 100 mM Tris-HCl solution, 10 mM calcium chloride solution, 100 mM sodium chloride solution and 0.05% Brij-35 solution), MOCAc-Pro-Leu-Gly-Leu-A2pr(DNP)-Ala-Arg-NH2 in 0.1% DMSO solution (100 μM, 10 μl) and a test compound in DMSO solution was incubated for 1.5 hours at 37° C. The mixture was put on a 96 well-plate (100 μl/well) and the plate was cultured at 37° C. The enzyme activity in the presence of the compound was measured based on fluorescence intensity (λex 320 nm, λem 405 nm), and IC50 was calculated.

pIC50: −log10 of the molar value. Some results are limits rather than exact numbers.

T2 sequence (P08254 100-272 limits assumed): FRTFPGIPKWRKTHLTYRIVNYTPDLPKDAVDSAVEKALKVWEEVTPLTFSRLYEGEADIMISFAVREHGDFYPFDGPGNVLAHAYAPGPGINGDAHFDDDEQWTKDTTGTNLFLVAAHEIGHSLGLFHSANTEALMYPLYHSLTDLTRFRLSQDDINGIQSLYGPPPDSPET

On to `CC(C)(C(=O)NO)N(Cc1ccccc1)S(=O)(=O)c1ccc(Oc2ccc(S(C)(=O)=O)cc2)cc1` [Example 10, N′^2′-Benzyl-N′^1′-hydroxy-2-methyl-N′^2′-({4-[4-(methylsulfonyl)phenoxy]phenyl}sulfonyl)alaninamide], for which the pIC50 is 5.62 in assay [1] and 7.07 in assay [2].
Consider `CS(=O)(=O)c1ccc(Oc2ccc(S(=O)(=O)N(CCC(=O)O)CC(=O)NO)cc2)cc1` [Example 36, N-[2-(Hydroxyamino)-2-oxoethyl]-N-({4-[4-(methylsulfonyl)phenoxy]phenyl}sulfonyl)-β-alanine], for which the pIC50 in assay [1] was 5.54; in assay [2] it was 7.43.
In the same order, the values of `CS(=O)(=O)c1ccc(Oc2ccc(S(=O)(=O)NC3(C(=O)NO)CCC3)cc2)cc1` [Example 48, N-Hydroxy-1-[({4-[4-(methylsulfonyl)phenoxy]phenyl}sulfonyl)amino]cyclobutanecarboxamide] are below 7.00 and 7.44.
Take `CS(=O)(=O)c1ccc(Oc2ccc(S(=O)(=O)N(CC(=O)O)CC(=O)NO)cc2)cc1` [Example 24, N-{[(Hydroxyamino)carbonyl]methyl}-N-({4-[4-(methylsulfonyl)phenoxy]phenyl}sulfonyl)-glycine]: the results for the pIC50 in assay [1] and in assay [2] were below 5.00 and 6.89, respectively.
For `COCCN(CC(=O)NO)S(=O)(=O)c1ccc(Oc2ccc(S(C)(=O)=O)cc2)cc1` [Example 44, N^1-Hydroxy-N^2-(2-methoxyethyl)-N^2-({4-[4-(methylsulfonyl)phenoxy]phenyl}sulfonyl)glycinamide], in that order: below 7.00 and 8.57.
In the same order, the values of `COCCCN(CC(=O)NO)S(=O)(=O)c1ccc(Oc2ccc(S(C)(=O)=O)cc2)cc1` [Example 43, N^1-Hydroxy-N^2-(3-methoxypropyl)-N^2-({4-[4-(methylsulfonyl)phenoxy]phenyl}sulfonyl)glycinamide] are 5.82 and 8.07.
In the same order, the values of `CCOC(=O)CN(C1(C(=O)NO)CCC1)S(=O)(=O)c1ccc(Oc2ccc(S(C)(=O)=O)cc2)cc1` [Example 46, Ethyl N-{1-[(hydroxyamino)carbonyl]cyclobutyl}-N-({4-[4-(methylsulfonyl)phenoxy]phenyl}sulfonyl)glycinate] are below 7.00 and 7.94.
Turning to `CC(C)CN(C1(C(=O)NO)CCOCC1)S(=O)(=O)c1ccc(Oc2ccc(S(C)(=O)=O)cc2)cc1` [Example 15, N-Hydroxy-4-[isobutyl({4-[4-(methylsulfonyl)phenoxy]phenyl}sulfonyl)amino]tetrahydro-2H-pyrane-4-carboxamide], the values for the pIC50 in assay [1] and in assay [2] were 6.52 and 8.28, respectively.
`CCOC(=O)CCN(C1(C(=O)NO)CCOCC1)S(=O)(=O)c1ccc(Oc2ccc(S(C)(=O)=O)cc2)cc1` [Example 31, Ethyl N-{4-[(hydroxyamino)carbonyl]tetrahydro-2H-pyran-4-yl}-N-({4-[4-(methylsulfonyl)phenoxy]phenyl}sulfonyl)-β-alaninate]: the figures for the pIC50 in assay [1] and in assay [2] were 6.10 and 7.23, respectively.
In the same order, the values of `COc1ccc(Oc2ccc(CC3Sc4ccc(C(=O)O)cc4N(CC(=O)NO)C3=O)cc2)cc1` (stereo not drawn) [compound 1, reference compound] are below 7.00 and 7.06.
Consider `CS(=O)(=O)c1ccc(Oc2ccc(S(=O)(=O)N(CCC(=O)O)C3(C(=O)NO)CCCC3)cc2)cc1` [Example 27, N-{1-[(Hydroxyamino)carbonyl]cyclopentyl}-N-({4-[4-(methylsulfonyl)phenoxy]phenyl}sulfonyl)-β-alanine], for which the pIC50 is below 5.00 in assay [1] and 7.05 in assay [2].
For `CC(C)OCCN(CC(=O)NO)S(=O)(=O)c1ccc(Oc2ccc(S(C)(=O)=O)cc2)cc1` [Example 3, N^1-hydroxy-N^2-(2-isopropoxyethyl)-N^2-({4-[4-(methylsulfonyl)phenoxy]phenyl}sulfonyl)glycinamide], the pIC50 in assay [1] is below 7.00; in assay [2], 8.32.
